Data on nine compounds can be found in patent publication US20240254129A1, “HETEROCYCLIC COMPOUNDS AND USES THEREOF” (Kumquat Biosciences Inc., priority 2021, published 2024).

Test [1] addresses GST-tagged K-Ras mutant / His-tagged hSOS1 (Homo sapiens, UniProt P01116). Briefly: HTRF assay, K-Ras mutant / SOS1 interaction. It counts as binding. The note with it: compound nos. 201-213, general methodology of example 5; read-out: IC50 against mutant Kras. An outline of the steps:
(§1)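 HTRF read-out of GST-tagged K-Ras (mutant or wildtype) binding His-hSOS1, via anti-GST-Eu donor and anti-6His-XL665 acceptor; buffer ~5 mM HEPES pH 7.4, ~150 mM NaCl, ~1 mM DTT, 0.05% BSA, 0.0025% Igepal. Read after ≥~10 min; duplicates, 10 μM to 0.01 μM; IC50 from 665/620 nm ratio.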

The target of test [2] is T1, wildtype Kras / hSOS1 (Homo sapiens, UniProt P01116).
T1 construct: made in house; host or cells: E. coli BL21 (DE3)
T1 sequence (P01116 1-188 isoform P01116-2): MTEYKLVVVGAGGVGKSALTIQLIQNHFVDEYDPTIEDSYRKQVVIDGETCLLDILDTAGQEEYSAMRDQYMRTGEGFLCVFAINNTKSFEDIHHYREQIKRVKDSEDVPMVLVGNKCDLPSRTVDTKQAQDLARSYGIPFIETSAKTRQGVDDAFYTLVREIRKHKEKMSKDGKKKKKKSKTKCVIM
Briefly: HTRF assay, wildtype Kras / SOS1 interaction. The note with it: compound nos. 201-213, general methodology of example 5; read-out: IC50 against wildtype Kras. It counts as binding. An outline of the steps:
as §1
Background: TR-FRET usually uses a lanthanide donor and a delayed reading to cut background.

SMILES strings stand for the structures. pIC50: −log10 of the molar value. Bounds are passed on as bounds.

GST-tagged K-Ras mutant / His-tagged hSOS1, sequence (P01116 whole entry G12D, form open): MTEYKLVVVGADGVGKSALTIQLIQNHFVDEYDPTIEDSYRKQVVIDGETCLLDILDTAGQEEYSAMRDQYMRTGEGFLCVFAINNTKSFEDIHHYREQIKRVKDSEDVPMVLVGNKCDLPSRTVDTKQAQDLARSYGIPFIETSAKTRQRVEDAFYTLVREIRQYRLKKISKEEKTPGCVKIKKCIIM

Take `Oc1cc(-c2c(Cl)cc3c(N4C[C@H]5CC[C@@H](C4)N5)nc(OC[C@@]45CCCN4C[C@H](F)C5)nc3c2F)c2ccccc2c1` [Compound 202, 4-(4-((1R,5S)-3,8-diazabicyclo[3.2.1]octan-3-yl)-6-chloro-8-fluoro-2-(((2R,7aS)-2-fluorotetrahydro-1H-pyrrolizin-7a(5H)-yl)methoxy)quinazolin-7-yl)naphthalen-2-ol]: the pIC50 in test [1] and in test [2] was over 5.82 in each case.

As to `Nc1nc2c(-c3c(Cl)cc4c(N5CC6CCC(C5)O6)nc(OC[C@@]56CCCN5C[C@H](F)C6)nc4c3F)ccc(F)c2s1` [Compound 203, 4-(4-(8-oxa-3-azabicyclo[3.2.1]octan-3-yl)-6-chloro-8-fluoro-2-(((2R,7aS)-2-fluorohexahydro-1H-pyrrolizin-7a-yl)methoxy)quinazolin-7-yl)-7-fluorobenzo[d]thiazol-2-amine], the pIC50 in test [1] and in test [2] was over 5.82 each time.

With `Nc1nc2c(-c3c(Cl)cc4c(N5CC6CCC(C5)N6)nc(OC[C@@]56CCCN5C[C@H](F)C6)nc4c3F)cccc2o1` [Compound 204, 4-(4-((1R,5S)-3,8-diaza-bicyclo[3.2.1]octan-3-yl)-6-chloro-8-fluoro-2-(((2R,7aS)-2-fluorotetra-hydro-1H-pyrrolizin-7a(5H)-yl)methoxy)quin-azolin-7-yl)benzo[d]-oxazol-2-amine], the pIC50 in test [1] and in test [2] was over 5.82 in each case.

Take `CN1[C@@H]2CC[C@H]1CN(c1nc(OC[C@@]34CCCN3C[C@H](F)C4)nc3c(F)c(-c4ccc(F)c5sc(N)nc45)c(Cl)cc13)C2` [Compound 205, 4-(6-chloro-8-fluoro-2-(((2R,7aS)-2-fluorotetra-hydro-1H-pyrrolizin-7a(5H)-yl)methoxy)-4-((1R,5S)-8-methyl-3,8-diazabicyclo[3.2.1]octan-3-yl)quinazolin-7-yl)-7-fluorobenzo[d]thiazol-2-amine]: the pIC50 in test [1] and in test [2] was over 5.82 in each case.

Consider `Nc1nc2c(-c3c(Cl)cc4c(N5C[C@H]6CC[C@@H](C5)N6)nc(OC[C@@]56CCCN5C[C@H](F)C6)nc4c3F)ccc(F)c2s1` [Compound 206, 4-(4-((1R,5S)-3,8-diaza-bicyclo[3.2.1]octan-3-yl)-6-chloro-8-fluoro-2-(((2R,7aS)-2-fluorotetra-hydro-1H-pyrrolizin-7a(5H)-yl)methoxy)quinazolin-7-yl)-7-fluorobenzo[d]thiazol-2-amine], for which the pIC50 in test [1] and in test [2] was over 5.82 each time.

In the case of `Nc1nc2c(-c3ccc4c(N5CC6CCC(C5)N6)nc(OC[C@@]56CCCN5C[C@H](F)C6)nc4c3F)ccc(F)c2s1` [Compound 207, 4-(4-((1R,5S)-3,8-diaza-bicyclo[3.2.1]octan-3-yl)-8-fluoro-2-(((2R,7aS)-2-fluoro-tetrahydro-1H-pyrrolizin-7a(5H)-yl)methoxy)quin-azolin-7-yl)-7-fluorobenzo-[d]thiazol-2-amine], the pIC50 in test [1] and in test [2] was over 5.82 throughout.

As to `Nc1nc2c(-c3c(Cl)cc4c(N5C[C@H]6CC[C@@H](C5)N6)nc(OCCCN5CCCC5)nc4c3F)ccc(F)c2s1` [Compound 208, 4-(4-((1R,5S)-3,8-diaza-bicyclo[3.2.1]octan-3-yl)-6-chloro-8-fluoro-2-(3-(pyrrolidin-1-yl)propoxy)-quinazolin-7-yl)-7-fluoro-benzo[d]thiazol-2-amine], the pIC50 in test [1] and in test [2] was over 5.82 each time.

For the compound `Oc1cc(-c2ccc3c(N4CC5CCC(C4)N5)nc(OC[C@@]45CCCN4C[C@H](F)C5)nc3c2F)c2ccccc2c1` [Compound 209, 4-(4-((1R,5S)-3,8-diaza-bicyclo[3.2.1]octan-3-yl)-8-fluoro-2-(((2R,7aS)-2-fluoro-tetrahydro-1H-pyrrolizin-7a(5H)-yl)methoxy)quin-azolin-7-yl)naphthalen-2-ol], the pIC50 in test [1] and in test [2] was over 5.82 in each case.

With `CN(C)CC1(COc2nc(N3C[C@H]4CC[C@@H](C3)N4)c3cc(Cl)c(-c4ccc(F)c5sc(N)nc45)c(F)c3n2)CC1` [Compound 210], the pIC50 in test [1] and in test [2] was over 5.82 in each case.
